We go through six molecules from ChEMBL document CHEMBL1201862, “PubChem BioAssay data set” (2004).

One assay relates to INS1. In words: INS-1E survival protection against cytokine death – cell-based, luminescence, retest, dose response (AID 449756).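 Further: cell death triggered by IL-1 beta plus TNF-alpha plus IFN-gamma mixture; protective hits raise ATP signal compared with cytokine alone wells.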 Format: functional. Conditions: Rattus norvegicus.
For another assay, the target named is T1, Caspase-3 (Homo sapiens, UniProt P42574).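 Further: Dose-response selectivity test against caspase-3 for candidate inhibitors of sentrin-specific proteases (SENPs).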
T1 sequence (P42574 whole entry): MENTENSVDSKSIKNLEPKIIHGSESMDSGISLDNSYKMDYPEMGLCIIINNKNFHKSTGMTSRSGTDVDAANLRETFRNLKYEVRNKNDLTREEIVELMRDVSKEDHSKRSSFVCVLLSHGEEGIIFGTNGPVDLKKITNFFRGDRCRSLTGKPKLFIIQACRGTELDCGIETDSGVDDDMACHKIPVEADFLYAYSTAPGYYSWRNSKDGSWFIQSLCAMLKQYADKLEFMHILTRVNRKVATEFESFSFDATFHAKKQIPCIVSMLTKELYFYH
Type of assay: functional.

In assay [1] the target is T2, Sentrin-specific protease 7 (Homo sapiens, UniProt Q9BQF6).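 Further: Luminescence-based dose-response confirmation of ultra-high-throughput screening hits, measuring inhibition of SENP7.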
T2 sequence (Q9BQF6 whole entry): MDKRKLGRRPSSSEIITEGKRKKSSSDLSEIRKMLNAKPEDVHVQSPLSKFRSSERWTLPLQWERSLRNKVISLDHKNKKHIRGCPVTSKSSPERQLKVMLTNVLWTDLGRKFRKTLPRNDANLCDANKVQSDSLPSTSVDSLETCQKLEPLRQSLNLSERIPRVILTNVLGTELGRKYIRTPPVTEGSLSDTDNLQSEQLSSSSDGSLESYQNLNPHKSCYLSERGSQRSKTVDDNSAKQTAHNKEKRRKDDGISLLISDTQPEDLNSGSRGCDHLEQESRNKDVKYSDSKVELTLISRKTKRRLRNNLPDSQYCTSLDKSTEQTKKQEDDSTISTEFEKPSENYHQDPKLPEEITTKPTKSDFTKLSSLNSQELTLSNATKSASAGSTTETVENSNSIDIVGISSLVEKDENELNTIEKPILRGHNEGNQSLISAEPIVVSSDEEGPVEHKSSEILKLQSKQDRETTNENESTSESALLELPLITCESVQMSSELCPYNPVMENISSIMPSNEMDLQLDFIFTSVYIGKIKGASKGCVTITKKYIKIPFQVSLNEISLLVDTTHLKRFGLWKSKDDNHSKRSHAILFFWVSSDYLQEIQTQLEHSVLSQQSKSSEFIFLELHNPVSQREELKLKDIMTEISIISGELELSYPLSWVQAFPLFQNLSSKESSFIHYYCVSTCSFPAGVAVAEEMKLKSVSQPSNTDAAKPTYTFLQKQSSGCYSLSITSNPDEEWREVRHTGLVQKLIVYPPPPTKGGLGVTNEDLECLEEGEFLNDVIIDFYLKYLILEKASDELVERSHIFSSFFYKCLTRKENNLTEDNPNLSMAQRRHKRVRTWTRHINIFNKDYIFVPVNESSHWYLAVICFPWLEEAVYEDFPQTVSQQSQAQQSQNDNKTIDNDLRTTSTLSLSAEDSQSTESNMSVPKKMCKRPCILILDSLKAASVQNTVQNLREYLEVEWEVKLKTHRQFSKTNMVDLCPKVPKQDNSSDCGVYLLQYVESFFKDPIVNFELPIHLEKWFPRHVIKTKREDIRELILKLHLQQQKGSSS
Format: functional.

Assay [2] concerns the target T3, Sentrin-specific protease 6 (Homo sapiens, UniProt Q9GZR1).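 Further: Luminescence-based dose-response confirmatory assay of SENP6 inhibition, following up an ultra-high-throughput screen.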
T3 sequence (Q9GZR1 whole entry): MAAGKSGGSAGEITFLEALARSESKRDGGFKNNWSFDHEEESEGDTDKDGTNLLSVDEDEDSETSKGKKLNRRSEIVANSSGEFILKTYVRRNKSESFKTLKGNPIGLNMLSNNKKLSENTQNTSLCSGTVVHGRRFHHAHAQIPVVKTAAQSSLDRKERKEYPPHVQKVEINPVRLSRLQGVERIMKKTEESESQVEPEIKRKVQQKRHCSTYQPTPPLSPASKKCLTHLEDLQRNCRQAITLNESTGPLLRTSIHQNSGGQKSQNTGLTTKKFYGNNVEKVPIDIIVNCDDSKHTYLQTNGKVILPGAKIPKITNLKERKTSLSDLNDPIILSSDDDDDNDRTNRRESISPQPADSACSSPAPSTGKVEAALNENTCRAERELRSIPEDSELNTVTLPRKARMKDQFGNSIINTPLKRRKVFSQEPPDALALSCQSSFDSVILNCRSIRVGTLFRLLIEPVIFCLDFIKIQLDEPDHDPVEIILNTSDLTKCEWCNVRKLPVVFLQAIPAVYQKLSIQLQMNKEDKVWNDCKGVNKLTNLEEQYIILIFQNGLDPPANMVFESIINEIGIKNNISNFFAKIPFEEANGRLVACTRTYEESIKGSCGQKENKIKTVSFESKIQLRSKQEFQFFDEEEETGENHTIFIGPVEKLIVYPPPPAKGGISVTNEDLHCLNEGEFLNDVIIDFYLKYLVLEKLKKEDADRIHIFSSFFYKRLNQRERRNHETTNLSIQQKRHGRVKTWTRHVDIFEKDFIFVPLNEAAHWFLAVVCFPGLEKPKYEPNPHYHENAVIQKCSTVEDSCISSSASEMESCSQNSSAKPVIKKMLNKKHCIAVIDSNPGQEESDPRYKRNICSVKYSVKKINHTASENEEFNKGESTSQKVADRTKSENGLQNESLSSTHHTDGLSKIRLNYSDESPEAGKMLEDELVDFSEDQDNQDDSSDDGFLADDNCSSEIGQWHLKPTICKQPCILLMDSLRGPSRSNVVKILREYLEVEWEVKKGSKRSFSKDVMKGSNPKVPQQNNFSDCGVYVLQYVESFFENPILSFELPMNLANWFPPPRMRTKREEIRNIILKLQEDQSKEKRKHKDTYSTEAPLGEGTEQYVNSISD
Type of assay: functional.

The target in assay [3] is T4, Tyrosyl-DNA phosphodiesterase 2 (Homo sapiens, UniProt O95551).
T4 sequence (O95551 whole entry): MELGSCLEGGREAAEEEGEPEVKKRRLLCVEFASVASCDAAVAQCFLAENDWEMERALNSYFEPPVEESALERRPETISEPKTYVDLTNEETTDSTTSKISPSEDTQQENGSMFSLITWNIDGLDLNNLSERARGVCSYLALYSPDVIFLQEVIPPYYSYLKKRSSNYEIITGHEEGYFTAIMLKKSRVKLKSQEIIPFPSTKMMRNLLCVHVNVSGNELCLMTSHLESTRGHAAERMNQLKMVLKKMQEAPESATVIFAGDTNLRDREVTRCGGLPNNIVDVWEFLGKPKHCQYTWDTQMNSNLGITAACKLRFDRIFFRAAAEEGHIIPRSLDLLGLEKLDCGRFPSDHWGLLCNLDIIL
In words: potency against TDP2 phosphodiesterase activity – biochemical, epi absorbance, IC50, dose response (AID 743297).

The source made the active and inactive calls. For most assays here, no stated cut-off is given here; in the data, actives have a measured IC50 and inactives only a lower limit.

What is called AC50 is the midpoint of the concentration-response curve, whichever way the signal moves. Turning to `COC(=O)C[C@]1(C(=O)OC)CN(C#N)N(c2ccc(Cl)cc2)C12c1ccccc1-c1ccccc12`, the AC50 in the assay on INS1 is 2.77 µM (active).
Usually IC50 stands for the point on the concentration scale where inhibition reaches its midpoint. With `O=C(Nc1ccc(C#Cc2ccccc2)cc1)C1CC1`, the IC50 on Caspase-3 was 43.6 µM (active); in assay [1], 3.38 µM (active); in assay [2] it was > 100 µM (inactive).
`CCCCn1c(NC(=O)c2ccco2)c(C(=O)OCC)c2nc3ccccc3nc21`: the 50% inhibitory concentration (IC50) on Caspase-3 was 15.8 µM (active); in assay [1], 10.1 µM (active); in assay [3], > 128 µM (inactive); in assay [2], 3.25 µM (active).
As to `Cc1ccccc1NC1=C/C(=N\S(=O)(=O)c2ccc(C(=O)O)cc2)c2ccccc2C1=O`, the half-inhibitory concentration (IC50) in assay [3] was 1.41 µM (active). Also, the AC50 in the assay on INS1 was 4.38 µM (active).
For `Cc1ccc(NC2=C/C(=N/S(=O)(=O)c3cccs3)c3ccccc3C2=O)cc1`, the IC50 at Caspase-3 is 2.1 µM (active); in assay [1], 0.359 µM (active); in assay [3] it was 3.3 µM (active); in assay [2], 0.186 µM (active). For the same molecule, the half-maximal activity concentration (AC50) in the assay on INS1 was 0.72 µM (active).
With `COc1ccc(-c2cc(-c3ccc(C)cc3)[nH]n2)c(O)c1`, the IC50 was 76.5 µM (active) at Caspase-3, 6.63 µM (active) in assay [1] and 19.7 µM (active) in assay [2].
